Like-named read-outs stand apart in the source and are kept apart here.
Cc1cccc([C@H](C)c2cnc[nH]2)c1C [dexmedetomidine, Dexmedetomidine]
solubility of dexmedetomidine (in Duro-Tak 87-2979): less than 2%
solubility of dexmedetomidine (in Duro-Tak 387/87-2353): 10-15%
solubility of dexmedetomidine (in hydroxyl functionalized acrylate polymer): less than 1%
solubility of dexmedetomidine (in lauryl lactate): 5 to 10%
solubility of dexmedetomidine (in levulinic acid): ~60%
solubility of dexmedetomidine (in oleic acid): ~40%
solubility of dexmedetomidine (in propylene glycolmonolaurate): 5 to 10%

— patent US20240245652A1, “METHODS AND COMPOSITIONS FOR MANAGING PAIN COMPRISING DEXMEDETOMIDINE TRANSDERMAL COMPOSITIONS” (Teikoku Pharma USA, Inc., priority 2013, published 2024)
